Experimental data as given in article PMC4683377, “BODIPY-Based Fluorescent Probes for Sensing Protein Surface-Hydrophobicity” (Scientific Reports, 2015).

What was measured:
[1] = biological target: T1, bovine serum albumin (BSA) (Bos taurus, UniProt P02769); assay: fluorescence titration ([…] dye, protein varied); assay type: binding
T1 construct: gene ALB

apomyoglobin (ApoMb) = biological target: T2, apomyoglobin (ApoMb) (Equus caballus, UniProt P68082); assay: fluorescence titration ([…] dye, protein varied); assay type: binding
T2 construct: gene MB; apo form (heme removed) prepared from equine myoglobin
T2 sequence (P68082 2-154): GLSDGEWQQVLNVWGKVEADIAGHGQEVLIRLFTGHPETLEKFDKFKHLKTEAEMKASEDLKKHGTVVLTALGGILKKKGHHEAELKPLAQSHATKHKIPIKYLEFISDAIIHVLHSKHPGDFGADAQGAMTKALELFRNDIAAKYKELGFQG

T1 sequence (P02769 25-607): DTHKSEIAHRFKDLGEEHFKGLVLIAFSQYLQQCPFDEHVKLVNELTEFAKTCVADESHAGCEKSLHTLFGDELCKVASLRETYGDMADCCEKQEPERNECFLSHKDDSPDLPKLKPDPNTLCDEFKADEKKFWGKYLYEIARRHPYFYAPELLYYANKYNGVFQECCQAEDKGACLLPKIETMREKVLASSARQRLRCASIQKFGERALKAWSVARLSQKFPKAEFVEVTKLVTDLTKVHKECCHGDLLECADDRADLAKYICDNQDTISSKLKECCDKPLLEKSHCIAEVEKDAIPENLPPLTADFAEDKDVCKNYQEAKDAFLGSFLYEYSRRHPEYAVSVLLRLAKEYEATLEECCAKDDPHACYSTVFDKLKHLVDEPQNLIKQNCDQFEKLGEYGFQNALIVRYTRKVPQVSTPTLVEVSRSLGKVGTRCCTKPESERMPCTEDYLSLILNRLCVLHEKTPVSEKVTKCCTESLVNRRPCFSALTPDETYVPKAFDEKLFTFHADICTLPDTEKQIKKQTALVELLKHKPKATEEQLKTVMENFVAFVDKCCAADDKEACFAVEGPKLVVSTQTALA

`COCCNC1=[N+]2C(=C(c3ccc(OC)cc3)c3ccc(NCCOC)n3[B-]2(F)F)C=C1` [compound 2, HPsensor 2] gave a Kd [1] of 34 nM and a Kd (apomyoglobin (ApoMb)) of 330 nM.
